Assay [1] addresses T1, 5-hydroxytryptamine receptor 5A (Mus musculus, UniProt P30966). Nature of the assay: Binding affinity towards mouse 5-hydroxytryptamine 5A receptor was evaluated using [3H]- LSD as radioligand.
The target in assay [2] is T2, 5-hydroxytryptamine receptor 6 (Homo sapiens, UniProt P50406).
In assay [3] the target is T2, 5-hydroxytryptamine receptor 6. The experiment in a line: Antagonistic activity towards 5-hydroxytryptamine 6 receptor. The format is functional. The settings on record: read-out: pA2 (converted).
Assay [4] is described as follows: Antagonistic activity of compound in 5-HT induced cAMP accumulation. It counts as functional. In general terms: Cyclic AMP is a second messenger, typically raised through Gs and lowered through Gi signalling.
The target in assay [5] is T2, 5-hydroxytryptamine receptor 6. The experiment in a line: Binding affinity towards human 5-hydroxytryptamine 6 receptor.
In assay [6] the target is 5-hydroxytryptamine receptor 2A (Homo sapiens, UniProt P28223). The experiment in a line: Binding affinity towards 5-hydroxytryptamine 2A receptor.
Sequence of 5-hydroxytryptamine receptor 2A (P28223 whole entry): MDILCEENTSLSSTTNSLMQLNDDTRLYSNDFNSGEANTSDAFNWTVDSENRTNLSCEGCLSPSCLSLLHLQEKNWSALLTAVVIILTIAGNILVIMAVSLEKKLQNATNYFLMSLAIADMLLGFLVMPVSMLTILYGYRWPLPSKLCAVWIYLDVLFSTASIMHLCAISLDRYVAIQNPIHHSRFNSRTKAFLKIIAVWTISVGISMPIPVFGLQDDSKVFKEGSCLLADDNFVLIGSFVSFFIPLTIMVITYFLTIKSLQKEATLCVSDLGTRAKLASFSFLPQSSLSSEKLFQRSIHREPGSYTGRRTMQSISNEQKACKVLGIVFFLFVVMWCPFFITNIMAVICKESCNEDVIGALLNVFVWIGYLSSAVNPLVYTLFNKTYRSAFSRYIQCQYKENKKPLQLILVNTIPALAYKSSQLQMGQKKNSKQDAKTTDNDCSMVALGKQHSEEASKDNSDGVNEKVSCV
Assay [7] has as its target T3, Alpha-1A adrenergic receptor (Homo sapiens, UniProt P35348).
T3 sequence (P35348 whole entry): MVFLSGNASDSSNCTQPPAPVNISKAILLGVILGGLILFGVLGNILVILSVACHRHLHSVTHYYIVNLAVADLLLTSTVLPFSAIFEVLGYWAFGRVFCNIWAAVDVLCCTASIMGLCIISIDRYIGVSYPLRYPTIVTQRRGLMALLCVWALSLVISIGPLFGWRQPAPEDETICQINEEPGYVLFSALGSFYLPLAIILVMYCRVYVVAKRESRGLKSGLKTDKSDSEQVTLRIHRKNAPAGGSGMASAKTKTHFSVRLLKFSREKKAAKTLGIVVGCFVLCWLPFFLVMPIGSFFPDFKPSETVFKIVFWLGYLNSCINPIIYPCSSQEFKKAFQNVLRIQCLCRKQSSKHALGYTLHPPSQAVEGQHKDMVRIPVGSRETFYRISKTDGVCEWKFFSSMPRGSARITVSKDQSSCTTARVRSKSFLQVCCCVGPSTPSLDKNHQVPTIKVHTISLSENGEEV
Nature of the assay: Binding affinity towards alpha-1-adrenergic receptor.

The target in assay [8] is T4, Alpha-2A adrenergic receptor (Homo sapiens, UniProt P08913).
T4 sequence (P08913 whole entry): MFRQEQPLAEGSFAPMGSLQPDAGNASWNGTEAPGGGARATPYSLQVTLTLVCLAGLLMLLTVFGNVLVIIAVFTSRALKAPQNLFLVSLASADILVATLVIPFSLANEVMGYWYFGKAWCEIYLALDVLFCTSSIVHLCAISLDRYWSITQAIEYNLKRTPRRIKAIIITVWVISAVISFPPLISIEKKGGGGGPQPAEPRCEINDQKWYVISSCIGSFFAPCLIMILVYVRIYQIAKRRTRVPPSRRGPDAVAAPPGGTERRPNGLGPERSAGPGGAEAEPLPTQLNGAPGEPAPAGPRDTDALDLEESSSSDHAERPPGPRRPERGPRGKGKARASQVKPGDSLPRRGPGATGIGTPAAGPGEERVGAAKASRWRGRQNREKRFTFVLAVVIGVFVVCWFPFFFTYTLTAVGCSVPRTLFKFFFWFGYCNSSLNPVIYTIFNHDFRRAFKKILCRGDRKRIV
The experiment in a line: Binding affinity towards Alpha-2 adrenergic receptor.

Assay [9] has as its target 5-hydroxytryptamine receptor 7 (Homo sapiens, UniProt P34969). The experiment in a line: Binding affinity towards human 5-hydroxytryptamine 7 receptor.
Assay [10] deals with T1, 5-hydroxytryptamine receptor 5A. The experiment in a line: Binding affinity towards mouse 5-hydroxytryptamine 5A receptor.
Assay [11] is described as follows: Antagonistoc activity of compound for 5-CT-mediated adenylate cyclase activity. The format is functional.
For assay [12], the target named is 5-hydroxytryptamine receptor 5A (Homo sapiens, UniProt P47898). Nature of the assay: Binding affinity towards 5-hydroxytryptamine 5A receptor.
Sequence of 5-hydroxytryptamine receptor 5A (Homo sapiens, UniProt P47898) (P47898 whole entry): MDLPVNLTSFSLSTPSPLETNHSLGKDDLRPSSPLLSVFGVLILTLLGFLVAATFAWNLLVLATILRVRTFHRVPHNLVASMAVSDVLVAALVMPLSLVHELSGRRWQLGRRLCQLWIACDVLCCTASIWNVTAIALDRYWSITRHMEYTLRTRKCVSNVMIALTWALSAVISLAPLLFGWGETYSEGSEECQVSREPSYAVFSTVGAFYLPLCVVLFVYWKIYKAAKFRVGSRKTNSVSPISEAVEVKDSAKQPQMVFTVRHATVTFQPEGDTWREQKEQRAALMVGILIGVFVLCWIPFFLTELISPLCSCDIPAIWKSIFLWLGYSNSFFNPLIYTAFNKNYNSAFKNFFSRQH

Each structure is given as a SMILES string.

T2 sequence (P50406 whole entry): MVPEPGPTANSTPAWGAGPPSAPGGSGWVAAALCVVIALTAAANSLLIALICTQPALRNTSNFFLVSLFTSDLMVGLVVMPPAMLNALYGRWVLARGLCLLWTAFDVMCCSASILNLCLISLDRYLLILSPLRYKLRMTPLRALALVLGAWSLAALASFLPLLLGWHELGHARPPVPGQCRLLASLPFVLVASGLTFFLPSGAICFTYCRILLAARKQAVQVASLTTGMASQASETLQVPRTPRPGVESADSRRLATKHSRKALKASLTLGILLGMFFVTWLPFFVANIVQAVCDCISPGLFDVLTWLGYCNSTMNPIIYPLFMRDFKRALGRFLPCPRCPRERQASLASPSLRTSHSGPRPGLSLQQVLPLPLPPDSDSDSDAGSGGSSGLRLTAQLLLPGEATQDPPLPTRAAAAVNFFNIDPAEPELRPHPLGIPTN
T1 sequence (P30966 whole entry): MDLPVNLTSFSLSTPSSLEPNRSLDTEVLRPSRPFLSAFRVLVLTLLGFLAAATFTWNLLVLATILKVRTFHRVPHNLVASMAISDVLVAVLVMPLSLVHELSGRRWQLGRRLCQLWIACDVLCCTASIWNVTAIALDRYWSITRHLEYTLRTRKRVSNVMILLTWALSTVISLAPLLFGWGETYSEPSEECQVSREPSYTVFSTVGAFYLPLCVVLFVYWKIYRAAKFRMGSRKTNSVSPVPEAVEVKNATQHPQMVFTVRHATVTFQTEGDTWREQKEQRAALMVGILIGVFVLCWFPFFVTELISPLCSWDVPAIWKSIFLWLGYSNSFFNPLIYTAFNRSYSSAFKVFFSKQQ
Sequence of 5-hydroxytryptamine receptor 7 (P34969 whole entry): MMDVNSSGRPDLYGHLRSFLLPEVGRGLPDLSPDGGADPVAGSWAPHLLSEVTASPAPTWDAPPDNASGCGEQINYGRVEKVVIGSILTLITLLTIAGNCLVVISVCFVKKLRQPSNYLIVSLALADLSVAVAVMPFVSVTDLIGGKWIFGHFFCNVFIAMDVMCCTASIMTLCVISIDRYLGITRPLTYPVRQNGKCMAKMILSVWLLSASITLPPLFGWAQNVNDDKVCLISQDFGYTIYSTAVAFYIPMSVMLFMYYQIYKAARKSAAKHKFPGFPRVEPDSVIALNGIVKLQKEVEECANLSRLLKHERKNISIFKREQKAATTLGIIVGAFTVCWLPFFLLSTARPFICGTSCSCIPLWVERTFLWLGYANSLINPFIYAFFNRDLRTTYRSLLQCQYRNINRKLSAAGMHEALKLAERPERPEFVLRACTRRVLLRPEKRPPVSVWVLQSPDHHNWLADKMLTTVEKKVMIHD

Usually Ki stands for a dissociation constant, usually derived from enzyme kinetics or from competition with a known ligand. Higher therefore signals lower affinity. For the molecule `c1ccc2c(N3CCNCC3)cccc2c1`, the Ki in assay [1] was found to be 40 nM.
Consider `COc1ccc2c(c1)c(CCN(C)C)cn2S(=O)(=O)c1ccccc1`, for which the affinity in [2], expressed as Ki, was 2.1 nM. Moreover, the Kb in assay [3] was 1.32 nM.
One may read the pA2 as the negative logarithm of the molar antagonist concentration that doubles the agonist concentration needed for the same response. `CNc1cc(NS(=O)(=O)c2ccc(N)cc2)cc(NC)n1`: in [4], the pA2 is listed as 7.1. Further, the Ki in assay [5] is 12 nM.
In the case of `CN1CCc2ccc3c4c2[C@H]1Cc1cccc(c1-4)[C@@H]3N`, the inhibition constant (Ki) in [6] was found to be 469 nM; in assay [7], 373 nM; in assay [8], 92.8 nM; in assay [9], 18 nM.
As to `c1ccc2c3c([nH]c2c1)CNCC3` [TRYPTOLINE], the Ki in [10] is 2470 nM; in [2] it was > 5000 nM.
Molecule `Cl.O=S(=O)(c1ccc2cc[nH]c2c1)N1CCC[C@@H]1CCN1CCC(Oc2ccc(Cl)cc2)CC1` had a pA2 in assay [11] of 8.1. In addition, the affinity in [12], expressed as Ki, was 168 nM.
